Test results from patent US7569542B2, “Anti-microbial targeting chimeric pharmaceutical” (priority 1999, dated 2009).
Where no end group is shown, it is not given here.

Tests used:
[1] = system: Host cells; assay: Minimal Inhibitory Concentrations; format: cell-based
[2] = system: S. mutans
[3] = system: S. sanguis
[4] = Antimicrobial activity of targeting peptide alone; format: cell-based
[5] = system: PAK cells; assay: Competition-binding experiment, labeled vs unlabeled Cat-1, fluorescent microscopy; parameters: species or system P. aeruginosa
Experimental: To further confirm the specificity of Cat-1 binding to Pak cells, competition-binding experiments were conducted. Labeled Cat-1 was mixed with increasing concentrations of unlabeled Cat-1, and fluorescent labeling of the target bacterial cells was measured by fluorescent microscopy.

[6] = system: E. coli W3110; assay: Selective killing in mixed culture of P. mendocina and E. coli W3110; format: cell-based; conditions: 6 μM peptide, 4 min; mixed with P. mendocina; preliminary results
Experimental: (§1) To test if G10CatC can selectively kill its target bacteria in a mixed culture, 10^5 of P. mendocina and E. coli W3110 cells were mixed and treated with 6 μM G10 or G10CatC peptides. Samples were taken at 30 sec. 1 min, 2 min, and 4 min, and survivors were counted by plating assays.

[7] = system: P. mendocina; assay: as above; format: cell-based; conditions: 6 μM peptide, 4 min; mixed with E. coli W3110; preliminary results
Experimental: as §1

[8] = system: P. mendocina; assay: Long-term time-kill experiment (up to 2 h); format: cell-based, Pseudomonas mendocina; conditions: for time to kill all input P. mendocina cells: 3 μM peptide; for surviving P. mendocina cells: 9 μM peptide
Experimental: Similar to the short-term kinetic studies described above, treatment with 3 μM G10CatC killed all input P. mendocina cells within 30 min, in contrast, it took 2 h for G10 alone to kill all input P. mendocina cells at the same concentration.

[9] = system: S. mutans cells; assay: Selective killing in mixed culture of PAK and S. mutans cells; format: cell-based; conditions: 9 μM peptide, within 4 min; mixed with PAK cells
Excerpt: (§2) In contrast, G10CatC killed over 90% of PAK cells, but none of S. mutans cells.

[10] = system: P. mendocina; format: cell-based, Pseudomonas mendocina
Experimental: (§3) Briefly, varying concentrations of peptide G10, G10CatC, or G10CatN was added to 10^5 of target bacterial cells and survivors were counted by plating samples after 0.5, 1, 2 and 4 minutes of peptide exposure.

[11] = system: Klebsiella Kay2026; format: cell-based
Experimental: (§4) To test the antimicrobial activity of the fusion peptides against target bacteria, a panel of bacteria, both gram positive and gram negative, were tested.

[12] = system: E. coli W3110 ampR; format: cell-based
Experimental: as §4

[13] = system: P. fluorescens 1089; format: cell-based
Experimental: as §4

[14] = system: S. mutans 140; format: cell-based
Experimental: as §4

[15] = system: P. aeruginosa Pak; format: cell-based; conditions: for MBC: Pak
Experimental: as §4

[16] = system: E. coli Aw405; format: cell-based
Experimental: as §4

[17] = system: S. oralis; format: cell-based
Experimental: as §4

[18] = system: P. fluorescens 1088; format: cell-based
Experimental: as §4

[19] = system: S. sanguis; format: cell-based
Experimental: as §4

[20] = system: E. coli W3110; format: cell-based
Experimental: as §4

[21] = system: P. aeruginosa Pak (ATCC); format: cell-based
Experimental: as §4

[22] = system: S. mitis; format: cell-based
Experimental: as §4

[23] = system: E. coli 3132 (wt); format: cell-based
Experimental: as §4

[24] = system: B. cepacia; format: cell-based
Experimental: as §4

[25] = system: S. aureus; format: cell-based
Experimental: as §4

[26] = system: Myxococcus; format: cell-based
Experimental: as §4

[27] = system: P. tabaci; format: cell-based
Experimental: as §4

[28] = system: Salmonella Lt2 (ATCC); format: cell-based
Experimental: as §4

[29] = system: S. mutans 159; format: cell-based
Experimental: as §4

[30] = system: Y. entercolitica; format: cell-based
Experimental: as §4

[31] = system: E. coli Mg1665 (smooth); format: cell-based
Experimental: as §4

[32] = system: P. mendocina; format: cell-based
Experimental: as §4

[33] = system: PAK cells; assay: Selective killing in mixed culture of PAK and S. mutans cells; format: cell-based, P. aeruginosa; conditions: 9 μM peptide, within 4 min; mixed with S. mutans
Excerpt: as §2

[34] = system: PAK cells; format: cell-based, Pseudomonas aeruginosa PAK; conditions: 18 μM peptide, up to 4 min
Experimental: as §3

| Molecule | live W3110 cells in mixed culture [6] | live P. mendocina cells in mixed culture [7] | time to kill all input P. mendocina cells [8] [min] | killing of S. mutans cells in mixed culture [9] | MBC [11] [µM] | MBC [13] [µM] | MBC [15] [µM] | MBC [16] [µM] | MBC [18] [µM] | MBC [20] [µM] | MBC [21] [µM] | MBC [23] [µM] | MBC [24] [µM] | MBC [25] [µM] | MBC [26] [µM] | MBC [27] [µM] | MBC [28] [µM] | MBC [30] [µM] | MBC [31] [µM] | MBC [32] [µM] | further results |
| --- | --- | --- | --- | --- | --- | --- | --- | --- | --- | --- | --- | --- | --- | --- | --- | --- | --- | --- | --- | --- | --- |
| C[C@H](NC(=O)[C@H](Cc1cnc[nH]1)NC(=O)[C@H](CO)NC(=O)[C@@H](N)CC(=O)O)C(=O)N[C@@H](CCCCN)C(=O)N[C@@H](CCCNC(=N)N)C(=O)N[C@@H](Cc1cnc[nH]1)C(=O)N[C@@H](Cc1cnc[nH]1)C(=O)NCC(=O)N[C@@H](Cc1ccc(O)cc1)C(=O)N[C@@H](CCCCN)C(=O)N[C@@H](CCCNC(=N)N)C(=O)N[C@@H](CCCCN)C(=O)N[C@@H](Cc1ccccc1)C(=O)N[C@@H](Cc1cnc[nH]1)C(=O)N[C@@H](CCC(=O)O)C(=O)N[C@@H](CCCCN)C(=O)N[C@@H](Cc1cnc[nH]1)C(=O)N[C@@H](Cc1cnc[nH]1)C(=O)N[C@@H](CO)C(=O)N[C@@H](Cc1cnc[nH]1)C(=O)N[C@@H](CCCNC(=N)N)C(=O)NCC(=O)N[C@@H](Cc1ccc(O)cc1)C(=O)O [Histatin 5, DSHAKRHHGY KRKFHEKHHS HRGY] |  |  |  |  |  |  |  |  |  |  |  |  |  |  |  |  |  |  |  |  | Minimal Inhibitory Concentrations [1]: >50 µM; Minimal Inhibitory Concentrations [2]: ~10 µM; Minimal Inhibitory Concentrations [3]: ~10 µM |
| KKHRKHRKHRKH (Design peptide) [Cat-1, 61] |  |  |  |  |  |  |  |  |  |  |  |  |  |  |  |  |  |  |  |  | antimicrobial activity [4]: does not have any antimicrobial activity; fluorescent signal of labeled Cat-1 on PAK cells ([5]; 10× molar excess unlabeled Cat-1): completely abolished; fluorescent signal of labeled Cat-1 on PAK cells ([5]; equal molar concentration of unlabeled Cat-1 added): reduced |
| KKHRKHRKHRKHGGSGGSKNLRRIIRKGIHIIKKYG [G10CatC] | remained nearly unchanged | no live P. mendocina cells could be detected | ≤ 30 | none | 11.6 to 23.2 | 2.9 | 1.4 to 2.9 | 11.6 | 1.45 | 2.81 | 4.9 | 5.8 | 13 | >23.2 | >11.6 | 2.175 | 11.6 to 23.2 | 23.2 | 2.9 | 1.4 to 2.4 | surviving P. mendocina cells ([8]; after 2 minutes of treatment): no surviving P. mendocina cells were recovered; time to reduce live P. mendocina cells to below detectable levels ([10]; 3 μM peptide): ≤ 4 min; MBC [12]: 2.9 µM; MBC [14]: 3.6 to 7.25 µM; enhancement of killing activity relative to G10 ([15]; against Pak, from MBC): 38 fold; MBC [17]: >58 µM; MBC [19]: 3.6 to 7.25 µM; MBC [22]: >58 µM; MBC [29]: 3.6 to 7.25 µM; MBC relative to G10 alone (higher) ([32]; P. mendocina): 2 ×; decrease of killing activity relative to G10 ([32]; against P. mendocina, from MBC): 2 fold |
| KNLRRIIRKGIHIIKKYG [G10, KNLRRIIRKGIHIIKKYG, reference compound] | did not affect the survival | did not affect the survival | 120 | did not kill any of the cells | >11.25 | >11.25 | 54.5 | 2.8 | 1.4 | 1.4 | 42.18 | 11.25 | 23 | >22.5 | >11.25 | 5.625 | >22.5 | 22.5 | 2.8 | 1.05 | surviving P. mendocina cells ([8]; after 30 minutes of exposure): a significant number of cells were recovered; killing of PAK cells in mixed culture [33]: did not kill any of the cells; killing activity ([10]; 3 μM peptide, within 4 min): did not display any killing activity; killing activity [34]: did not show any killing activity; MBC [12]: 2.8 µM; MBC [14]: 3.5 to 7.03 µM; MBC [17]: >58 µM; MBC [19]: 3.5 to 7.03 µM; MBC [22]: >58 µM; MBC [29]: 3.5 to 7.03 µM |
| KNLRRIIRKGIHIIKKYGGGSGGSKKHRKHRKHRKH [G10CatN] |  |  |  |  | >11.6 | 11.6 | 45 | >23.2 | 1.45 | >11.6 | 17.4 | 11.6 | 11.6 | >23.2 | >11.6 | >11.6 | >23.2 | >23.2 | >23.2 | 2.8 | killing ([10]; any concentration tested, through 4 minutes): no killing |
